Assay results from patent US20240374631A1, “A COMPOSITION FOR IMPROVING GUT MICROBIOTA, BEHAVIOURAL PATTERN, ALPHA-SYNUCLEIN LEVELS, SLEEP PATTERN AND/OR SERUM MELATONIN” (GN Corporation Co Ltd, priority 2021, published 2024).

Test system: fecal metabolome
Experiment: Fecal metabolome analysis (GC-MS peak height, PCA, OPLS-DA) in STAM model of NASH
Format: in vivo, C57BL/6J mice

## CCCc1nc2c(C)cc(-c3nc4ccccc4n3C)cc2n1Cc1ccc(-c2ccccc2C(=O)O)cc1 [Telmisartan]
Difference
  Peak height after normalization, 2-Aminobutyric acid-2TMS: 17954.52
  Peak height after normalization, 2-Hydroxyisobutyric acid-2TMS: 133880.36
  Peak height after normalization, 3-Aminoglutaric acid-3TMS: 8627.53
  Peak height after normalization, 3-Hydroxybutyric acid-2TMS: −4608.17
  Peak height after normalization, 5-Aminovaleric acid-3TMS: 26394.02
  Peak height after normalization, Glutamic acid-3TMS: 382709.41
  Peak height after normalization, Glutamine-3TMS: 30745.13
  Peak height after normalization, Glycine-3TMS: 109331.29
  Peak height after normalization, Hypoxanthine-2TMS: 23680.72
  Peak height after normalization, Lactic acid-2TMS: −35605.88
  Peak height after normalization, Leucine-2TMS: 267732.46
  Peak height after normalization, Lysine-4TMS: 360841.28
  Peak height after normalization, Malic acid-3TMS: −16354.66
  Peak height after normalization, Norvaline-TMS: 37744.18
  Peak height after normalization, Phosphoric acid-3TMS: 15228.48
  Peak height after normalization, Proline-2TMS: 52750.51
  Peak height after normalization, Succinic acid-2TMS: 50806.69
  Peak height after normalization, Taurine-3TMS: 9869.33
  Peak height after normalization, Tyrosine-3TMS: 116635.49
  Peak height after normalization, Uracil-2TMS: −3276.22
  Peak height after normalization, Valine-2TMS: 267808.23
Post
  Peak height after normalization, 2-Aminobutyric acid-2TMS: 43700.57
  Peak height after normalization, 3-Aminoglutaric acid-3TMS: 12436.04
  Peak height after normalization, 3-Hydroxybutyric acid-2TMS: 10891.34
  Peak height after normalization, Alanine-2TMS: 1268525.27
  Peak height after normalization, Glycerol-3TMS: 324467.91
  Peak height after normalization, Glycine-3TMS: 288456.14
  Peak height after normalization, Isoleucine-2TMS: 381173.16
  Peak height after normalization, Lactic acid-2TMS: 36363.66
  Peak height after normalization, Leucine-2TMS: 631954.96
  Peak height after normalization, Lysine-4TMS: 952876.14
  Peak height after normalization, Malic acid-3TMS: 38544.73
  Peak height after normalization, Methionine-2TMS: 168797.44
  Peak height after normalization, Norvaline-TMS: 110365.67
  Peak height after normalization, Phenylalamine-2TMS: 342996.16
  Peak height after normalization, Phosphoric acid-3TMS: 122301.92
  Peak height after normalization, Proline-2TMS: 151136.53
  Peak height after normalization, Taurine-3TMS: 24726.77
  Peak height after normalization, Tryptophan-3TMS: 28678.00
  Peak height after normalization, Uracil-2TMS: 71567.16
  Peak height after normalization, Valine-2TMS: 521841.20
  Peak height after normalization, Xanthine-3TMS: 103194.40
Pre
  Peak height after normalization, 3-Aminoglutaric acid-3TMS: 3808.51
  Peak height after normalization, 3-Hydroxybutyric acid-2TMS: 15499.52
  Peak height after normalization, 5-Aminovaleric acid-3TMS: 28517.91
  Peak height after normalization, 5-Oxoproline-2TMS: 113169.35
  Peak height after normalization, #Sz,899;-3TMS: 124526.34
  Peak height after normalization, Aspartic acid-3TMS: 183416.60
  Peak height after normalization, Glycerol-3TMS: 283873.86
  Peak height after normalization, Hypoxanthine-2TMS: 33144.25
  Peak height after normalization, Isoleucine-2TMS: 175687.57
  Peak height after normalization, Lactic acid-2TMS: 71969.33
  Peak height after normalization, Lysine-4TMS: 592034.86
  Peak height after normalization, Malic acid-3TMS: 54899.38
  Peak height after normalization, Methionine-2TMS: 103825.98
  Peak height after normalization, Norvaline-TMS: 72621.50
  Peak height after normalization, Phenylalamine-2TMS: 208441.78
  Peak height after normalization, Phosphoric acid-3TMS: 107073.44
  Peak height after normalization, Succinic acid-2TMS: 263097.91
  Peak height after normalization, Taurine-3TMS: 14857.44
  Peak height after normalization, Tryptophan-3TMS: 16169.30
  Peak height after normalization, Tyrosine-3TMS: 309190.46
  Peak height after normalization, Uracil-2TMS: 74843.38
  Peak height after normalization, Valine-2TMS: 254032.97
  Peak height after normalization, Xanthine-3TMS: 101684.60
